Structures can show the parent of a compound that is named as a salt. Where two headings read alike, the source gives them in different places.

Data on 69 compounds can be found in article PMC7802075 (ACS Infectious Diseases, 2020).

The target in this assay is T1, LmjIPCS (inositol phosphorylceramide synthase from L. major) (Leishmania major, UniProt E9AFX2).
T1 sequence (E9AFX2 1-338): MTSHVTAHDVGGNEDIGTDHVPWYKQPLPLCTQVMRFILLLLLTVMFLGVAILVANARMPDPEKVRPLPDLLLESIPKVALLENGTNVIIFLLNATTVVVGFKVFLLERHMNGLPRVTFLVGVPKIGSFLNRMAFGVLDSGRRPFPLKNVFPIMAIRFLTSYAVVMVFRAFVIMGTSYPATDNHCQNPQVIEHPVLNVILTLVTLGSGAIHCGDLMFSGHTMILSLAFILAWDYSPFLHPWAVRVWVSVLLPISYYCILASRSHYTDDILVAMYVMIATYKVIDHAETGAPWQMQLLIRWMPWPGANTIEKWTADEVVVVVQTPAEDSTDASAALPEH
The assay can be described thus: biochemical. The format is biochemical. Also on record: inhibition: dose or concentration left out as unconfirmed. To be noted: for inhibition: read-out: inhibition LmjIPCS; for inhibition at 20000 µM: read-out: 20mM inhibition LmjIPCS.

Setting [1] is: NINDS set screen, single concentration printed as 20mM.
[2] abbreviates: screening of NINDS set, sheet Screen 1.

On to `O=C1[C@H](CC[C@H](O)c2ccc(F)cc2)[C@@H](c2ccc(O)cc2)N1c1ccc(F)cc1` [EZETIMIBE], for which, under “NINDS set screen”, the inhibition turned out to be 23%.

As to `NCCc1c[nH]cn1` [HISTAMINE], the inhibition at 20000 µM was 4.39%.

For the compound `NC1(C(=O)O)CCCC1` [CYCLOLEUCINE], the inhibition at 20000 µM is 12%. For `CC(C)=CC1C(C(=O)OCc2cccc(Oc3ccccc3)c2)C1(C)C` (stereo not drawn) [PHENOTHRIN], the “20mM inhibition LmjIPCS” value was found to be 39%.

For `CN1CCCN=C1/C=C/c1cccs1`, the inhibition at 20000 µM was determined as 20%. Turning to `NC(Cc1c[nH]cn1)C(=O)Nc1ccc2ccccc2c1` (stereo not drawn), under setting [1], the “20mM inhibition LmjIPCS” value was 47%. With `CCn1cc(C(=O)O)c(=O)c2ccc(C)nc21` [NALIDIXIC ACID], the inhibition at 20000 µM was -11%. Consider `O=P1(N(CCCl)CCCl)NCCCO1` (stereo not drawn) [CYCLOPHOSPHAMIDE], for which the inhibition at 20000 µM was -0.87%. On to `O=C(O)c1ccccc1Nc1cccc(C(F)(F)F)c1` [FLUFENAMIC ACID], for which the inhibition at 20000 µM was -16%. Take `CC(C)=CCC1=C(O)C(=O)c2ccccc2C1=O` [LAPACHOL]: the inhibition at 20000 µM turned out to be 5.55%. As to `CN1C[C@H](CNC(=O)OCc2ccccc2)C[C@@H]2c3cccc4c3c(cn4C)C[C@H]21` [METERGOLINE], the inhibition worked out at 11%. In the case of `N=C(NCCC[C@H](N)C(=O)O)N[N+](=O)[O-]` [N (g)-NITRO-L-ARGININE], the “20mM inhibition LmjIPCS” value was 1.68%. Turning to `NCC(O)c1ccc(O)cc1` (stereo not drawn) [OCTOPAMINE HYDROCHLORIDE], the inhibition (NINDS set screen) was determined as 33%. Regarding `Nc1ccc(/N=N/c2ccccc2)c(N)n1` [PHENAZOPYRIDINE], the “20mM inhibition LmjIPCS” value under setting [1] is on record as 52%. As to `CC(=O)NC1CCSC1=O` (stereo not drawn) [CITIOLONE], under “NINDS set screen”, the inhibition is -8%. Turning to `Nc1ccc(C(=O)NCC(=O)O)cc1` [AMINOHIPPURIC ACID], the inhibition under setting [2] came to 7%. Take `Cc1ccc(/C(=C\CN2CCCC2)c2ccccn2)cc1` [TRIPROLIDINE]: the “20mM inhibition LmjIPCS” value was 42%. For `C#C[C@]1(O)CC[C@H]2[C@@H]3CCC4=CC(=O)CC[C@]4(C)[C@H]3CC[C@@]21C` [ETHISTERONE], the inhibition at 20000 µM stood at 2.43%. Regarding `Cc1cc(C(C)(C)CC(C)(C)C)ccc1OCCOCC[N+](C)(C)Cc1ccccc1.[Cl-]` [METHYLBENZETHONIUM CHLORIDE], the “20mM inhibition LmjIPCS” value (NINDS set screen, compound at 20mM (so in the source)) is 12%.

With `C[N+](C)(C)CCOC(N)=O` [CARBACHOL], under setting [1], the “20mM inhibition LmjIPCS” value amounted to 57%. As to `Nc1cc(N2CCCCC2)nc(N)[n+]1[O-]` [MINOXIDIL], the inhibition is 15%. Regarding `CCN(CC)CCCC(C)Nc1c2ccc(Cl)cc2nc2ccc(OC)cc12` (stereo not drawn) [QUINACRINE], the “20mM inhibition LmjIPCS” value amounted to 59%. For `CNC1(C)C2CCC(C2)C1(C)C` (stereo not drawn) [MECAMYLAMINE], the inhibition (NINDS set screen) was found to be 17%. Consider `CO[C@H]1/C=C/O[C@@]2(C)Oc3c(C)c(O)c4c(O)c(c(/C=N/N5CCN(C)CC5)c(O)c4c3C2=O)NC(=O)/C(C)=C\C=C\[C@H](C)[C@H](O)[C@@H](C)[C@@H](O)[C@@H](C)[C@H](OC(C)=O)[C@@H]1C` [RIFAMPIN], for which the inhibition at 20000 µM worked out at 27%. Take `CO/N=C1\CN(c2nc3c(cc2F)c(=O)c(C(=O)O)cn3C2CC2)CC1CN` (stereo not drawn) [GEMIFLOXACIN]: the inhibition at 20000 µM was 25%.

Consider `CC(=O)OCC(=O)[C@@]1(O)CC[C@H]2[C@@H]3C[C@H](C)C4=CC(=O)C=C[C@]4(C)[C@H]3[C@@H](O)C[C@@]21C` [6alpha-METHYLPREDNISOLONE ACETATE], for which the “20mM inhibition LmjIPCS” value (single concentration 20mM as printed, screening of NINDS set, sheet Screen 1) was 9%. As for `CC(=O)N[C@@H](CS)C(=O)O` [ACETYLCYSTEINE], the “20mM inhibition LmjIPCS” value turned out to be 53%. Turning to `NC(=O)N1c2ccccc2C=Cc2ccccc21` [CARBAMAZEPINE], the “20mM inhibition LmjIPCS” value is 50%.

Consider `CC(C)=CCC[C@]1(C)C=Cc2c(O)c3c(c(CC=C(C)C)c2O1)O[C@]12C(=C[C@@H]4C[C@H]1C(C)(C)O[C@@]2(C/C=C(/C)C(=O)O)C4=O)C3=O` [GAMBOGIC ACID], for which the “20mM inhibition LmjIPCS” value is 58%.

In the case of `CCCCCCOc1ccccc1C(N)=O` [EXALAMIDE], the inhibition under setting [2] worked out at 8%.

As to `CC(C)Cn1c(=O)n(C)c(=O)c2[nH]cnc21` [3-ISOBUTYL-1-METHYLXANTHINE], the “20mM inhibition LmjIPCS” value came to 11%.

Take `CC[C@H]1CN2CC[C@H]1C[C@@H]2[C@@H](O)c1ccnc2ccc(OC)cc12` [HYDROQUINIDINE]: the “20mM inhibition LmjIPCS” value under setting [1] is on record as 58%. With BENZALKONIUM CHLORIDE, the “20mM inhibition LmjIPCS” value is listed as 9%. As to `CCCCNc1cc(C(=O)O)cc(S(N)(=O)=O)c1Oc1ccccc1` [BUMETANIDE], the inhibition was found to be 9%. As for `C[C@]12C=CC(=O)C=C1CC[C@@H]1[C@@H]2[C@@H](O)C[C@@]2(C)[C@H]1CC[C@]2(O)C(=O)CO` [PREDNISOLONE], the inhibition was determined as 21%. Take `CC[C@]12CCCN3CCc4c(n(c5ccccc45)[C@@](O)(C(=O)OC)C1)[C@@H]32` [VINCAMINE]: the inhibition (NINDS set screen) was -17%. With `COc1cc(O)c2c(c1)C(=O)c1cc(C)cc(O)c1C2=O` [PHYSCION], the inhibition came out at 18%. For the compound `C[N+](C)(C)CC(O)CC(=O)[O-]` (stereo not drawn) [CARNITINE], the inhibition came out at 15%. Still for that read-out and setting: the result for `O=C(C1CCCCC1)N1CC(=O)N2CCc3ccccc3C2C1` (stereo not drawn) [PRAZIQUANTEL] reads -3.78%; that for `CN(Cc1cnc2nc(N)nc(N)c2n1)c1ccc(C(=O)N[C@@H](CCC(=O)O)C(=O)O)cc1` [METHOTREXATE], 8%. Take `COc1ccc2cc(CCC(C)=O)ccc2c1` [NABUMETONE]: the inhibition (NINDS set screen) came to 12%. Take `CC[C@@H](C(=O)O)[C@@H]1O[C@@H]([C@@H](C)[C@H](O)[C@H](C)C(=O)[C@H](CC)[C@H]2O[C@]3(C=C[C@@H](O)[C@]4(CC[C@@](C)([C@H]5CC[C@](O)(CC)[C@H](C)O5)O4)O3)[C@H](C)C[C@@H]2C)[C@@H](C)C[C@@H]1C` [NARASIN]: the inhibition at 20000 µM is -0.161%.

For `Cc1c(N(C)C)c(=O)n(-c2ccccc2)n1C` [AMINOPHENAZONE], the inhibition is -19%. With `C[N+](C)(C)CCOP(=O)(O)OP(=O)([O-])OC[C@H]1O[C@@H](n2ccc(N)nc2=O)[C@H](O)[C@@H]1O` [CITICOLINE], the inhibition at 20000 µM came out at 0.108%. As to `CC(C)=CC1C(C(=O)O)C1(C)C` (stereo not drawn) [CHRYSANTHEMIC ACID], the “20mM inhibition LmjIPCS” value under setting [1] amounted to 69%. `S=C=NCc1ccccc1` [BENZYL ISOTHIOCYANATE]: the inhibition at 20000 µM came to 6%. `CCc1cccc2c3c([nH]c12)C(CC)(CC(=O)O)OCC3` (stereo not drawn) [ETODOLAC]: the inhibition is 13%.

Regarding `CN(C)CCc1c[nH]c2ccc(C[C@H]3COC(=O)N3)cc12` [ZOLMITRIPTAN], the “20mM inhibition LmjIPCS” value is given as 44%. Consider `CCCN(CCC)S(=O)(=O)c1ccc(C(=O)O)cc1` [PROBENECID], for which, where the note is “NINDS set screen”, the inhibition is 13%. Consider `Cc1ccc(/N=C/N(C)/C=N/c2ccc(C)cc2C)c(C)c1` [AMITRAZ], for which the “20mM inhibition LmjIPCS” value came to 55%. Consider `O=C(O)c1cc2cc(F)ccc2[nH]1` [5-FLUOROINDOLE-2-CARBOXYLIC ACID], for which the “20mM inhibition LmjIPCS” value was found to be 51%. Regarding `CCOC(=O)NNc1nncc2ccccc12` [TODRALAZINE], under setting [2], the inhibition is 2%. Turning to `Nc1nc(N)c2nc(CNc3ccc(C(=O)N[C@@H](CCC(=O)O)C(=O)O)cc3)cnc2n1` [AMINOPTERIN], the inhibition at 20000 µM came out at 0.247%. For the compound `CNC(=O)Oc1ccc2c(c1)[C@]1(C)CCN(C)[C@@H]1N2C` [PHYSOSTIGMINE], the inhibition at 20000 µM stood at 15%.

Take `CNC(=C[N+](=O)[O-])NCCSCc1ccc(CN(C)C)o1` [RANITIDINE]: the inhibition was found to be 1.29%. On to `Cn1c(=O)[nH]c(=O)c2[nH]cnc21` [3-METHYLXANTHINE], for which the inhibition at 20000 µM was found to be 12%. On to `O=c1[nH]c(=O)n([C@H]2C[C@H](O)[C@@H](CO)O2)cc1F` [FLOXURIDINE], for which the inhibition (NINDS set screen) was -2.28%.

Consider `Cc1onc(-c2c(Cl)cccc2Cl)c1C(=O)N[C@@H]1C(=O)N2[C@@H]1SC(C)(C)[C@@H]2C(=O)O` [DICLOXACILLIN], for which the inhibition at 20000 µM amounted to 2.55%. Still for that read-out and setting: the result for `CC(C)c1c(C(=O)Nc2ccccc2)c(-c2ccccc2)c(-c2ccc(F)cc2)n1CC[C@@H](O)C[C@@H](O)CC(=O)O` [ATORVASTATIN] reads 9.48%; that for `C[C@H](N)[C@H](O)c1ccc(O)c(O)c1` [LEVONORDEFRIN], 16%.

For `C=C[C@@]1(C)CC(=O)[C@]2(O)[C@@]3(C)[C@@H](O)CCC(C)(C)[C@@H]3[C@H](O)[C@H](OC(C)=O)[C@@]2(C)O1` [COLFORSIN], the “20mM inhibition LmjIPCS” value under setting [1] is on record as 51%.

Consider `COc1cc(C2Oc3cc([C@H]4Oc5cc(O)cc(O)c5C(=O)[C@@H]4O)ccc3OC2CO)ccc1O` (stereo partly drawn) [SILIBININ], for which the inhibition at 20000 µM turned out to be 2.14%. With `Nc1ccc(S(=O)(=O)NC(=O)c2ccccc2)cc1` [SULFABENZAMIDE], the inhibition (NINDS set screen) was -6%. For the compound `CC1Cc2ccccc2N1NC(=O)c1ccc(Cl)c(S(N)(=O)=O)c1` (stereo not drawn) [INDAPAMIDE], the inhibition came to 5%. As for `O=C(NCO)c1cccnc1` [N-HYDROXYMETHYLNICOTINAMIDE], the inhibition (NINDS set screen) turned out to be 12%. Consider `CC1(C)S[C@@H]2[C@H](NC(=O)COc3ccccc3)C(=O)N2[C@H]1C(=O)O` [PENICILLIN V], for which the inhibition at 20000 µM was 3.31%. On to `CNC(C)(C)Cc1ccccc1` [MEPHENTERMINE], for which the inhibition at 20000 µM is 22%. Consider `COC1=CC(=O)C[C@@H](C)[C@]12Oc1c(Cl)c(OC)cc(OC)c1C2=O` [GRISEOFULVIN], for which the inhibition was found to be 28%. Turning to `CN[C@@H]1[C@H](O[C@H]2[C@H](O[C@H]3[C@H](O)[C@@H](O)[C@H](NC(=N)N)[C@@H](O)[C@@H]3NC(=N)N)O[C@@H](C)[C@]2(O)CO)O[C@@H](CO)[C@H](O)[C@H]1O` [DIHYDROSTREPTOMYCIN], the inhibition at 20000 µM amounted to 12%.
